Each compound was assayed on mice (assay: Acute toxicity in mice). Settings: intraperitoneal dose of 250 mg/kg.
Type: in vivo
From the text: The compound of Example 13 was orally or intraperitoneally administered to mice.
With `COc1ccc(N2N=C3c4cc(C)ccc4CCC3CC2=O)cc1` (stereo not shown) [Example 13, 2-(4-Methoxyphenyl)-9-methyl-4,4a,5,6-tetrahydrobenzo[h]cinnolin-3(2H)-one] the “survival, acute toxicity” value was “All mice survived”.

Same assay, conditions: oral dose of 1000 mg/kg
`COc1ccc(N2N=C3c4cc(C)ccc4CCC3CC2=O)cc1` (stereo not shown) [Example 13, 2-(4-Methoxyphenyl)-9-methyl-4,4a,5,6-tetrahydrobenzo[h]cinnolin-3(2H)-one] was tested, and the “survival, acute toxicity” value was “All mice survived”.

What follows are compounds tested against benzodiazepine receptor (assay: Displacement of tritiated diazepam from benzodiazepine receptor (crude synaptosomal membranes of rat cerebral cortex)). Settings: tritiated diazepam 2 nM, 4° C., 20 minutes, Tris-HCl pH 7.4.
Type: binding, male Wistar rats
Protocol: A displacement ability for benzodiazepine receptor is shown as follows:
A specific binding for benzodiazepine receptor was determined according to the methods described in European Journal of Pharmacology, vol. 51, p. 129 (1978) and Life Science, vol. 20, p. 1201 (1977).
In brief, the crude synaptosomal membranes were prepared from the cerebral cortex of 9 to 10 week-old male Wistar rats and were suspended in Tris-HCl buffer (pH 7.4). Various concentrations of test compounds and tritiated diazepam (final concentration: 2 nM) were incubated at 4° C. for 20 minutes. Then the suspension was filtered through Whatman GF/B glass fiber filters. Radioactivity of tritiated diazepam on the filters was measured by liquid scintillation spectrometry. Specific binding was defined as the difference in the amount of radioactivity bound in the absence and presence of 1.0×10^-6 M unlabeled diazepam.
According to the above experimental method, the affinity of the compounds of the present invention is evaluated as an ability to displace tritiated diazepam from the binding site, and is represented as Ki value.
In the case of `O=c1cc2c(nn1-c1ccccc1)-c1cc(Cl)ccc1CC2` [Example 2, 9-chloro-2-phenyl-5,6-dihydrobenzo[h]cinnolin-3(2H)-one], the Ki is reported as 190 nM. `O=c1cc2c(nn1-c1ccccc1)-c1ccccc1CC2` [Example 3, 2-phenyl-5,6-dihydrobenzo[h]cinnolin-3(2H)-one] was tested, and the Ki was 130 nM. Work on `Cc1ccc(-n2nc3c(cc2=O)CCc2ccc(Cl)cc2-3)cc1` [Example 15, 9-Chloro-2-(4-methylphenyl)-5,6-dihydrobenzo[h]cinnolin-3(2H)-one] yielded a Ki of 28 nM. In the case of `O=c1cc2c(nn1-c1ccc(Cl)cc1)-c1cc(Cl)ccc1CC2` [Example 17, 9-Chloro-2-(4-chlorophenyl)-5,6-dihydrobenzo[h]cinnolin-3(2H)-one], the Ki is reported as 47 nM. `O=c1cc2c(nn1-c1ccc(Cl)cc1)-c1cc(F)ccc1CC2` [Example 19, 2-(4-Chlorophenyl)-9-fluoro-5,6-dihydrobenzo[h]cinnolin-3(2H)-one] was tested, and the Ki was 45 nM. In the case of `O=C1CC2CCc3ccc(Cl)cc3C2=NN1c1ccccc1` (stereo not shown) [Example 1, 9-chloro-2-phenyl-4,4a,5,6-tetrahydrobenzo[h]cinnolin-3(2H)-one], the Ki is reported as 120 nM. With `O=C1CC2CCc3ccc(F)cc3C2=NN1c1ccc(Cl)cc1` (stereo not shown) [Example 20, 2-(4-Chlorophenyl)-9-fluoro-4,4a,5,6-tetrahydrobenzo[h]cinnolin-3(2H)-one] the Ki was 34 nM. Compound `O=c1cc2c(nn1-c1ccc([N+](=O)[O-])cc1)-c1cc(Cl)ccc1CC2` [Example 18, 9-Chloro-2-(4-nitrophenyl)-5,6-dihydrobenzo[h]cinnolin-3(2H)-one] has a Ki of 90 nM. With `COc1ccc2c(c1)C1=NN(c3ccc(C)cc3)C(=O)CC1CC2` (stereo not shown) [Example 14, 9-Methoxy-2-(4-methylphenyl)-4,4a,5,6-tetrahydrobenzo[h]cinnolin-3(2H)-one] the Ki was 8.2 nM. `Cc1ccc(N2N=C3c4cc(Cl)ccc4CCC3CC2=O)cc1` (stereo not shown) [Example 16, 9-Chloro-2-(4-methylphenyl)-4,4a,5,6-tetrahydrobenzo[h]cinnolin-3(2H)-one] showed a Ki of 14 nM. With `O=c1cc2c(nn1-c1ccccc1)-c1cc(F)ccc1CC2` [Example 30, 9-Fluoro-2-phenyl-5,6-dihydrobenzo[h]cinnolin-3(2H)-one] the Ki was 220 nM. Work on `Cc1ccc(N2N=C3c4cc(C)ccc4CCC3CC2=O)cc1` (stereo not shown) [Example 11, 9-Methyl-2-(4-methylphenyl)-4,4a,5,6-tetrahydrobenzo[h]cinnolin-3(2H)-one] yielded a Ki of 16 nM. Compound `COc1ccc(N2N=C3c4cc(C)ccc4CCC3CC2=O)cc1` (stereo not shown) [Example 13, 2-(4-Methoxyphenyl)-9-methyl-4,4a,5,6-tetrahydrobenzo[h]cinnolin-3(2H)-one] has a Ki of 6.6 nM. With `Cc1ccc2c(c1)C1=NN(c3ccc(Cl)cc3)C(=O)CC1CC2` (stereo not shown) [Example 12, 2-(4-Chlorophenyl)-9-methyl-4,4a,5,6-tetrahydrobenzo[h]cinnolin-3(2H)-one] the Ki was 26 nM.

Reference: patent US4782057A, “Benzo[h]cinnoline compound, a method of preparing said compound and a pharmaceutical composition” (Yoshitomi Pharmaceutical Industries, Ltd., priority 1984, dated 1988)
